This assay deals with BDF1 mice, P388 leukemia ip, median survival T/C. Kind of assay: NCI In Vivo Anticancer Drug Screen. Data for tumor model P388 Leukemia (intraperitoneal) in B6D2F1 (BDF1) mice. The following applies: endpoint: median survival time, higher = longer survival. In outline:
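In tumour-bearing mice, survival after compound treatment is set against the vehicle group and given as a quotient.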

Setting [1] is: dose: 50.0 mg/kg/injection, schedule: Q04DX003 (ip), vehicle: saline with Tween-80.
The mark [2] stands for this setting: dose: 100.0 mg/kg/injection, schedule: Q01DX009 (ip), vehicle: other.
The mark [3] stands for this setting: dose: 100.0 mg/kg/injection, schedule: Q04DX003 (ip), vehicle: saline with Tween-80.
Setting [4] is: dose: 200.0 mg/kg/injection, schedule: Q01DX009 (ip), vehicle: other.
Setting [5] is: dose: 200.0 mg/kg/injection, schedule: Q04DX003 (ip), vehicle: saline with Tween-80.
Setting [6] is: dose: 50.0 mg/kg/injection, schedule: Q01DX009 (ip), vehicle: saline.
The mark [7] stands for this setting: dose: 100.0 mg/kg/injection, schedule: Q01DX009 (ip), vehicle: saline.
The mark [8] stands for this setting: dose: 100.0 mg/kg/injection, schedule: Q04DX003 (ip), vehicle: saline.
Where [9] appears, read: dose: 200.0 mg/kg/injection, schedule: Q04DX003 (ip), vehicle: saline.
The mark [10] stands for this setting: dose: 400.0 mg/kg/injection, schedule: Q04DX003 (ip), vehicle: saline with Tween-80.
Setting [11] is: dose: 0.5 mg/kg/injection, schedule: Q01DX009 (ip), vehicle: Klucel (hydroxypropylcellulose) (HPC).
The mark [12] stands for this setting: dose: 1.0 mg/kg/injection, schedule: Q01DX009 (ip), vehicle: Klucel (hydroxypropylcellulose) (HPC).
Setting [13] is: dose: 12.5 mg/kg/injection, schedule: Q01DX009 (ip), vehicle: saline with Tween-80.
[14] abbreviates: dose: 25.0 mg/kg/injection, schedule: Q01DX009 (ip), vehicle: saline with Tween-80.

SMILES strings stand for the structures. Several values for one entry are separate records, joined by “and”; a condition that tells them apart may be missing. Equal entries are not always repeated. Toxic doses and inconclusive results are not listed.

On to `Cc1ccc(S(=O)(=O)F)c(Cl)c1`, for which the T/C runs as follows: (dose: 50.0 mg/kg/injection, schedule: Q01DX009 (ip), vehicle: other) 91 % of control; under setting [1], 100 % of control; under setting [2], 91 % of control; under setting [3], 104 % of control; under setting [4], 91 % of control; under setting [5], 109 % of control.
Take `CCC(C)(C)C(=O)O`: the T/C is 100 % of control under setting [6]; 100 % of control (dose: 50.0 mg/kg/injection, schedule: Q04DX003 (ip), vehicle: saline); 105 % of control under setting [7]; 105 % of control under setting [3]; 104 % of control under setting [8]; 110 % of control (dose: 200.0 mg/kg/injection, schedule: Q01DX009 (ip), vehicle: saline). Also, the T/C is 110 % of control under setting [5], 100 % of control under setting [9] and 100 % of control under setting [10].
Regarding `CC(=O)OC1CCC2(C)C3=C(CCC2C1)C1C(OC(=O)c2ccccc2[N+](=O)[O-])CC(c2ccc(=O)oc2)C1(C)CC3` (configuration not stated), the T/C runs as follows: (dose: 0.25 mg/kg/injection, schedule: Q01DX009 (ip), vehicle: Klucel (hydroxypropylcellulose) (HPC)) 102 % of control; under setting [11], 111 % of control; under setting [12], 100 % of control.
With `[Cl][Co][Cl].[NH-]CC[NH-].[NH-]CC[NH-]`, the T/C (dose: 25.0 mg/kg/injection, schedule: Q04DX002 (ip), vehicle: saline) was 100 % of control; the T/C (dose: 50.0 mg/kg/injection, schedule: Q04DX002 (ip), vehicle: saline) is 109 % of control; the T/C (dose: 100.0 mg/kg/injection, schedule: Q04DX002 (ip), vehicle: saline) is 104 % of control and 111 % of control.
On to `C=C1C(=O)OC2C1C(OC(=O)/C(C)=C/CO)C/C(C)=C/CCC1(CO)OC21` (configuration not stated), for which the T/C under setting [11] was 97 % of control; the T/C under setting [12] was 94 % of control; the T/C (dose: 2.0 mg/kg/injection, schedule: Q01DX009 (ip), vehicle: Klucel (hydroxypropylcellulose) (HPC)) is 101 % of control; the T/C (dose: 4.0 mg/kg/injection, schedule: Q01DX009 (ip), vehicle: Klucel (hydroxypropylcellulose) (HPC)) is 100 % of control.
Regarding `C[C@]12CC[C@H]3[C@@H](CCC4=CC(=O)CC[C@@]43C)[C@@H]1CC[C@@H]2OC(=O)Cc1ccc(N(CCCl)CCCl)cc1`, the T/C (dose: 64.0 mg/kg/injection, schedule: Q01DX009 (ip), vehicle: Klucel (hydroxypropylcellulose) (HPC)) was 104 % of control and 105 % of control; the T/C (dose: 100.0 mg/kg/injection, schedule: Q01DX009 (ip), vehicle: saline with Tween-80) is 113 % of control; the T/C (dose: 128.0 mg/kg/injection, schedule: Q01DX009 (ip), vehicle: Klucel (hydroxypropylcellulose) (HPC)) was 111 % of control and 123 % of control; the T/C (dose: 256.0 mg/kg/injection, schedule: Q01DX009 (ip), vehicle: Klucel (hydroxypropylcellulose) (HPC)) is 157 % of control; the T/C (dose: 264.0 mg/kg/injection, schedule: Q04DX003 (ip), vehicle: saline with Tween-80) is 120 % of control; the T/C (dose: 400.0 mg/kg/injection, schedule: Q01DX009 (ip), vehicle: saline with Tween-80) was 209 % of control. For the same compound, the T/C under setting [10] was 154 % of control; the T/C (dose: 512.0 mg/kg/injection, schedule: Q01DX009 (ip), vehicle: Klucel (hydroxypropylcellulose) (HPC)) is 115 % of control; the T/C (dose: 600.0 mg/kg/injection, schedule: Q04DX003 (ip), vehicle: saline with Tween-80) was 200 % of control.
For `Cc1ccc(CNc2ccc(C)c(Cl)c2)cc1`, the T/C was 104 % of control under setting [2]; 113 % of control under setting [4]; 118 % of control (dose: 400.0 mg/kg/injection, schedule: Q01DX009 (ip), vehicle: other).
`COc1cc(C(=O)OC2c3ccccc3CCC2N(C)C)cc(OC)c1OC` (configuration not stated): the T/C was 102 % of control (dose: 25.0 mg/kg/injection, schedule: Q01DX009 (ip), vehicle: saline); 103 % of control and 107 % of control under setting [6]; 102 % of control under setting [7].
For the compound `Nc1nc(SCc2ccccc2)c2ncn(C3OC(CO)CC3O)c2n1` (configuration not stated), the T/C was 100 % of control (dose: 100.0 mg/kg/injection, schedule: Q01DX009 (ip), vehicle: saline sonified); 109 % of control (dose: 100.0 mg/kg/injection, schedule: Q04DX003 (ip), vehicle: saline sonified); 100 % of control (dose: 200.0 mg/kg/injection, schedule: Q01DX009 (ip), vehicle: saline sonified); 109 % of control (dose: 200.0 mg/kg/injection, schedule: Q04DX003 (ip), vehicle: saline sonified); 113 % of control (dose: 400.0 mg/kg/injection, schedule: Q01DX009 (ip), vehicle: saline sonified); 109 % of control (dose: 400.0 mg/kg/injection, schedule: Q04DX003 (ip), vehicle: saline sonified).
On to `CCOC(=S)N/N=C(\C)CC`, for which the T/C (dose: 2.5 mg/kg/injection, schedule: Q01DX009 (ip), vehicle: saline with Tween-80) is 93 % of control and the T/C (dose: 5.0 mg/kg/injection, schedule: Q01DX009 (ip), vehicle: saline with Tween-80) was 93 % of control.
On to `Cc1cc(CC(Cl)(C(F)(F)F)C(F)(F)F)cc(CC(Cl)(C(F)(F)F)C(F)(F)F)n1`, for which the T/C runs as follows: (dose: 6.25 mg/kg/injection, schedule: Q01DX009 (ip), vehicle: saline with Tween-80) 110 % of control; under setting [13], 105 % of control; (dose: 12.5 mg/kg/injection, schedule: Q04DX003 (ip), vehicle: saline with Tween-80) 90 % of control; under setting [14], 110 % of control; (dose: 25.0 mg/kg/injection, schedule: Q04DX003 (ip), vehicle: saline with Tween-80) 90 % of control; under setting [1], 113 % of control.
Consider `CCOCc1cc([N+](=O)[O-])cc([N+](=O)[O-])c1O`, for which the T/C runs as follows: under setting [13], 109 % of control; under setting [14], 113 % of control.
Turning to `Cc1csc(NC(=O)Nc2ccc(F)cc2[N+](=O)[O-])n1`, the T/C is 110 % of control under setting [13]; 88 % of control under setting [14]; 120 % of control (dose: 50.0 mg/kg/injection, schedule: Q01DX009 (ip), vehicle: saline with Tween-80).
With `CC(=O)[C@H]1CC[C@H]2[C@@H]3C[C@H](C)C4=CC(=O)CC[C@]4(C)[C@H]3C(=O)C[C@]12C`, the T/C under setting [3] is 103 % of control, the T/C under setting [5] is 107 % of control and the T/C under setting [10] is 103 % of control.
As for `CCOC(=O)C1(C(=O)OCC)COC(C)(C)OC1`, the T/C by setting is: (dose: 50.0 mg/kg/injection, schedule: Q01DX009 (ip), vehicle: Klucel (hydroxypropylcellulose) (HPC)) 115 % of control; under setting [8], 104 % of control; (dose: 175.0 mg/kg/injection, schedule: Q04DX003 (ip), vehicle: saline) 118 % of control; (dose: 200.0 mg/kg/injection, schedule: Q01DX009 (ip), vehicle: Klucel (hydroxypropylcellulose) (HPC)) 105 % of control; under setting [9], 100 % of control and 113 % of control; (dose: 265.0 mg/kg/injection, schedule: Q04DX003 (ip), vehicle: saline) 113 % of control. In addition, the T/C runs as follows: (dose: 400.0 mg/kg/injection, schedule: Q01DX009 (ip), vehicle: Klucel (hydroxypropylcellulose) (HPC)) 105 % of control; (dose: 400.0 mg/kg/injection, schedule: Q04DX003 (ip), vehicle: saline) 113 % of control and 122 % of control; (dose: 600.0 mg/kg/injection, schedule: Q04DX003 (ip), vehicle: saline) 109 % of control.
Turning to `O=C(Nc1nncs1)c1ccncc1`, the T/C (dose: 50.0 mg/kg/injection, schedule: Q04DX002 (ip), vehicle: saline with Tween-80) was 90 % of control; the T/C (dose: 200.0 mg/kg/injection, schedule: Q04DX002 (ip), vehicle: saline with Tween-80) was 152 % of control; the T/C (dose: 400.0 mg/kg/injection, schedule: Q04DX002 (ip), vehicle: saline with Tween-80) was 100 % of control.
`NNC(=O)C1CC2C=CCC(C2)C1` (configuration not stated): the T/C (dose: 50.0 mg/kg/injection, schedule: Q01DX001 (ip), vehicle: saline with Tween-80) is 100 % of control; the T/C (dose: 100.0 mg/kg/injection, schedule: Q01DX001 (ip), vehicle: saline with Tween-80) is 91 % of control; the T/C (dose: 200.0 mg/kg/injection, schedule: Q01DX001 (ip), vehicle: saline with Tween-80) is 91 % of control.

For the origin of these results see PubChem BioAssay AID328 (DTP/NCI, 2004).
